Measurements from ChEMBL document CHEMBL5620416, “Design, synthesis and development of a dual inhibitor of Topoisomerase 1 and poly (ADP-ribose) polymerase 1 for efficient killing of cancer cells” (Eur J Med Chem, 2023).
Calls of active or inactive are those of the source. The calls are words filed in the database; no cut-off is given here.

Experiments:
HCT-116 [1] = assay: Cytotoxicity against human HCT-116 cells incubated for 72 hrs by MTT assay; format: functional, cell-based; details: HCT-116, 72 h
MIA PaCa-2 [2] = assay: Cytotoxicity against human MIA PaCa-2 cells incubated for 72 hrs by MTT assay; format: functional, cell-based; details: MIA PaCa-2, 72 h
PANC-1 [3] = assay: Cytotoxicity against human PANC-1 cells incubated for 72 hrs by MTT assay; format: functional, cell-based; details: PANC-1, 72 h
HCT-116 [4] = assay: Cytotoxicity against human HCT-116 cells at greater than 10 uM incubated for 7 to 10 days by crystal violet staining based assay; format: functional, cell-based; details: time 7-10 day
MIA PaCa-2 [5] = assay: Cytotoxicity against human MIA PaCa-2 cells at greater than 10 uM incubated for 7 to 10 days by crystal violet staining based assay; format: functional, cell-based; details: time 7-10 day
PANC-1 [6] = assay: Cytotoxicity against human PANC-1 cells at greater than 10 uM incubated for 7 to 10 days by crystal violet staining based assay; format: functional, cell-based; details: time 7-10 day
HCT-116 [7] = assay: Induction of TOP1-DNA covalent complex PARlyation in human HCT-116 cells at 1 uM measured upto 24 hrs by RADAR assay; format: functional, cell-based
[8] = test system: DNA topoisomerase 1/Deoxyribonucleic acid (Homo sapiens); assay: Induction of TOP1-DNA covalent complex stabilization in human HCT-116 cells at 10 to 20 uM after 4 to 6 hrs by RADAR assay; format: cell-based; details: dose 10-20 µM, time 4-6 hrs
[9] = test system: DNA topoisomerase 1/Deoxyribonucleic acid (Homo sapiens); assay: Induction of TOP1-DNA covalent complex stabilization in human HCT-116 cells at 10 to 20 uM after 2 hrs by RADAR assay; format: cell-based; details: dose 10-20 µM
[10] = test system: DNA topoisomerase 1/Deoxyribonucleic acid (Homo sapiens); assay: Induction of TOP1-DNA covalent complex degradation in human HCT-116 cells at 1 uM by RADAR assay; format: cell-based; details: time 2-24 hrs, TDE = time-dependent effect
Calf thymus DNA = assay: Binding affinity to calf thymus pUC19 DNA assessed as intercalating activity by measuring conformational change in DNA at 50 to 100 uM incubated for 30 mins by EtBr staining based agarose gel electrophoresis; format: nucleic-acid assay; details: Bos taurus, dose 50-100 µM
HCT-116 [11] = assay: Cytotoxicity against human HCT-116 cells at less than 10 uM incubated for 7 to 10 days by crystal violet staining based assay; format: functional, cell-based; details: time 7-10 day
MIA PaCa-2 [12] = assay: Cytotoxicity against human MIA PaCa-2 cells at less than 10 uM incubated for 7 to 10 days by crystal violet staining based assay; format: functional, cell-based; details: time 7-10 day
PANC-1 [13] = assay: Cytotoxicity against human PANC-1 cells at less than 10 uM incubated for 7 to 10 days by crystal violet staining based assay; format: functional, cell-based; details: time 7-10 day
HCT-116 [14] = assay: Induction of PARylation in human HCT-116 cells at 20 uM incubated for 2 to 8 hrs by Western blotting analysis; format: functional, cell-based; details: time 2-8 hrs

SMILES | IC50 (HCT-116 [1]) | IC50 (MIA PaCa-2 [2]) | IC50 (PANC-1 [3]) | Activity (HCT-116 [4]) | Activity (MIA PaCa-2 [5]) | Activity (PANC-1 [6]) | other results
COc1ccc(Cc2nn(CCc3nnc(SCCN4C(=O)c5cccc6cccc(c56)C4=O)o3)c(=O)c3ccccc23)cc1 | > 25 µM | > 25 µM | > 25 µM | Active | Active | Active | 
O=C1NC(=O)c2cccc3cccc1c23 | 15 µM | 18 µM | 20 µM |  |  |  | 
CC[C@@]1(O)C(=O)OCc2c1cc1n(c2=O)Cc2cc3ccccc3nc2-1 |  |  |  |  |  |  | Activity (HCT-116 [7]): Active; Activity [8]: inactive; Activity [9]: Active; Activity [10]: Tde
CN(C)c1ccc2cc3ccc(N(C)C)cc3nc2c1 |  |  |  |  |  |  | Activity (Calf thymus DNA): Active
O=C1c2cccc3cccc(c23)C(=O)N1CCSc1nnc(CCn2nc(Cc3ccccc3)c3ccccc3c2=O)o1 | > 25 µM | > 25 µM | > 25 µM |  |  |  | 
COc1ccc(Cc2nn(CCCc3nnc(SCCN4C(=O)c5cccc6cccc(c56)C4=O)o3)c(=O)c3ccccc23)cc1 | > 25 µM | > 25 µM | > 25 µM | Active | Active | Active | 
COc1ccc(Cc2nn(Cc3nnc(SCCN4C(=O)c5cccc6cccc(c56)C4=O)o3)c(=O)c3ccccc23)cc1 | 13.5 µM | 14 µM | 13 µM |  |  |  | Activity (HCT-116 [11]): Active; Activity (MIA PaCa-2 [12]): Active; Activity (PANC-1 [13]): Active
O=C1c2cccc3cccc(c23)C(=O)N1CCSc1nnc(CCCn2nc(Cc3ccc(F)cc3)c3ccccc3c2=O)o1 | > 25 µM | > 25 µM | > 25 µM | Active | Active | Active | 
O=C1c2cccc3cccc(c23)C(=O)N1CCSc1nnc(CCn2nc(Cc3ccc(F)cc3)c3ccccc3c2=O)o1 | 12.5 µM | 11 µM | 13 µM |  |  |  | Activity (HCT-116 [11]): Active; Activity (MIA PaCa-2 [12]): Active; Activity (PANC-1 [13]): Active
O=C1c2cccc3cccc(c23)C(=O)N1CCSc1nnc(Cn2nc(Cc3ccccc3)c3ccccc3c2=O)o1 | > 25 µM | > 25 µM | > 25 µM | Active | Active | Active | 
O=C1c2cccc3cccc(c23)C(=O)N1CCCc1nnc(CCn2nc(Cc3ccc(F)cc3)c3ccccc3c2=O)o1 | > 25 µM | > 25 µM | > 25 µM | Active | Active | Active | 
O=C1c2cccc3cccc(c23)C(=O)N1CCCc1nnc(Cn2nc(Cc3ccc(F)cc3)c3ccccc3c2=O)o1 | > 25 µM | > 25 µM | > 25 µM | Active | Active | Active | 
O=C1c2cccc3cccc(c23)C(=O)N1CCSc1nnc(CCCn2nc(Cc3ccccc3)c3ccccc3c2=O)o1 | > 25 µM | > 25 µM | > 25 µM | Active | Active | Active | 
COc1cccc2c1C(=O)c1c(O)c3c(c(O)c1C2=O)C[C@@](O)(C(=O)CO)C[C@@H]3O[C@H]1C[C@H](N)[C@H](O)[C@H](C)O1 |  |  |  |  |  |  | Activity (Calf thymus DNA): Active
O=C(c1cc(Cc2n[nH]c(=O)c3ccccc23)ccc1F)N1CCN(C(=O)C2CC2)CC1 [OLAPARIB] | 9 µM | 8 µM | 7 µM |  |  |  | Activity (HCT-116 [14]): inactive
